Assay results from article PMC3010440 (Journal of ethnopharmacology, 2010).
Values joined by “and” are separate entries in the source; they are usually repeats but may differ in a detail not shown here. Equal values may be shown once. Read-outs that look alike come from different tables or passages of the source.

Experiments:
Type in all cases: cell-based
[1] = tested on: Plasmodium falciparum Dd2; test: Antiplasmodial pLDH assay, chloroquine-resistant strain Dd2; conditions: for Resistance index (RI): RI = IC50 Dd2 / IC50 D10
[2] = tested on: Chinese Hamster Ovarian (CHO) cell line; test: Cytotoxicity MTT assay; conditions: for CHO Cell line (IC50) / IC50: triplicate; for Selectivity index (SI): SI = IC50 CHO / IC50 D10; for IC50: read-out: CHO Cell line (IC50)
[3] = tested on: Plasmodium falciparum D10; test: Antiplasmodial pLDH assay, chloroquine-sensitive strain D10
[4] = CQ-resistant Dd2 strain, pLDH, triplicate, ten point dose response
[5] = read-out: Plasmodium falciparum Dd2: IC50, CQ-resistant Dd2 strain, pLDH, triplicate, ten point dose response
[6] = CQ-sensitive D10 strain, pLDH, triplicate, ten point dose response
[7] = read-out: Plasmodium falciparum D10 (IC50), CQ-sensitive D10 strain, pLDH, triplicate, ten point dose response
[8] = Plasmodium falciparum, DD2, read-out: Plasmodium falciparum Dd2: IC50
[9] = Plasmodium falciparum, D10, read-out: Plasmodium falciparum D10 (IC50)

| Compound | Plasmodium falciparum Dd2: IC50 [1, 4] | Resistance index (RI) [1] | IC50 [1, 5] | CHO Cell line (IC50) ([2]; CHO cells, MTT) | Selectivity index (SI) [2] | IC50 ([2]; CHO cells, MTT) | Plasmodium falciparum D10 (IC50) [3, 6] | IC50 [3, 7] | IC50 [1, 8] | IC50 [3, 9] | Cytotoxicity (in words) ([2]; CHO cells, MTT) | Cytotoxicity (in words) [2] |
| --- | --- | --- | --- | --- | --- | --- | --- | --- | --- | --- | --- | --- |
| C=C1C(=O)O[C@@H]2C3O[C@]3(C)CC/C=C(\C)C[C@@H](OC(C)=O)[C@@H]12 (stereo partly drawn) [Compound 8, lipiferolide] | 2.3 ± 0.1 µg/mL | 1.3 | 7.5 ± 0.3 µM | 1.4 ± 0.2 µg/mL | 0.8 | 4.6 ± 0.7 µM | 1.8 ± 0.7 µg/mL | 5.9 ± 2.3 µM |  |  |  |  |
| asimilobine [Compound 1] | 5.8 ± 1.3 µg/mL | 4.8 | 21.7 ± 6.3 µM | > 100 µg/mL | > 83 | > 300 µM | 1.2 ± 0.1 µg/mL | 4.5 ± 0.3 µM |  |  |  |  |
| c1ccc2c(c1)C[C@H]1NCCc3cc4c(c-2c31)OCO4 [Compound 5, anonaine] |  | 4.2 |  |  | > 83 |  |  |  | 5.2 µg/mL and 19.6 µM | 1.2 µg/mL and 4.5 µM |  |  |
| COc1cc2c(cc1OC)-c1c(OC)c(OC)cc3c1[C@H](C2)NCC3 [Compound 3, norglaucine] | 32.2 ± 1.3 µg/mL | 1.5 | 94.3 ± 3.8 µM | > 100 µg/mL | > 5 | > 300 µM | 22.0 ± 2.8 µg/mL | 64.4 ± 8.2 µM |  |  | no observable cytotoxicity |  |
| O[C@@H]1c2ccccc2-c2c3c(cc4c2[C@@H]1NCC4)OCO3 [Compound 2, norushinsunine] | 30.9 ± 2.3 µg/mL | 1.0 | 110 ± 8.1 µM | > 100 µg/mL | > 3 | > 300 µM | 29.6 ± 3.9 µg/mL | 105 ± 13.9 µM |  |  |  | no observable cytotoxicity |
| O=C1c2ccccc2-c2c3c(cc4ccnc1c24)OCO3 [Compound 4, liriodenine] |  | 1.9 |  |  | 2.0 |  |  |  | 7.9 µg/mL and 28.7 µM | 4.1 µg/mL and 14.9 µM |  |  |
| COc1cc2c(cc1OC)-c1c(OC)c(OC)cc3ccnc(c13)C2=O [Compound 6, oxoglaucine] |  | 2.3 |  |  | > 11 |  |  |  | 20.8 µg/mL and 59.2 µM | 9.1 µg/mL and 25.9 µM | no observable cytotoxicity |  |
| CCN(CC)CCCC(C)Nc1ccnc2cc(Cl)ccc12 (stereo not drawn) [Chloroquine, Chloroquine diphosphate, reference compound] |  |  |  |  |  |  |  |  | 0.07 µg/mL and 230 nM | 0.01 µg/mL and 30 nM |  |  |
| C=C1C(=O)O[C@H]2[C@H]1[C@H](OC(C)=O)CC(=C)[C@H](OO)CC[C@@]1(C)O[C@H]21 [Compound 7, peroxyferolide] | 4.3 ± 1.2 µg/mL | 0.7 | 12.7 ± 3.5 µM | 3.2 ± 0.6 µg/mL | 0.5 | 9.5 ± 1.8 µM | 6.2 ± 0.1 µg/mL | 18.3 ± 0.3 µM |  |  |  |  |
